Data published in US20030143645A1, “Quinone reductase 2 and aldehyde dehydrogenase as therapeutic targets” (priority 2001, published 2003).

What was measured:
QR2 = target: T1, QR2 (Homo sapiens, UniProt P16083); experiment: QR2 activity assay with recombinant QR2 (Example 2); assay type: biochemical; design: GST (N, cleaved yes); made in house; E. coli only by inference; details: recombinant QR2; 50 μM NMeH, 5-30 μM menadione; read-out: QR2 K1 (μM) ± SEM
T1 sequence (P16083 1-231): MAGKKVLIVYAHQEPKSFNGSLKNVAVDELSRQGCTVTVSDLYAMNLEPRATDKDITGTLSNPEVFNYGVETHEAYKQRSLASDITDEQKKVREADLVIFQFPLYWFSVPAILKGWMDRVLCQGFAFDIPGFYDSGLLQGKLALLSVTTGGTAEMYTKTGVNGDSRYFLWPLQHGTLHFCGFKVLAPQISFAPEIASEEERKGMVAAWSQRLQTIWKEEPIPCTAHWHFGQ
Method: Cloning of human QR2. Human QR2 was PCR amplified from human liver cDNA (Clontech) with the following primers: 5′[…]-3′ and 5′-[…]-3′ and cloned into the pGEX-4T-2 GST expression vector (Pharmacia). GST-tagged QR2 was purified and the GST tag removed according to the manufacturers instructions.
ALDH1, QR2 and QR1 activity assays. […] Reaction products were separated with a gradient of acetonitrile in 10 mM triethylamine acetic acid. […] QR1 IC50 values were calculated using GraphPad Prism.

ALDH1 = target: T2, ALDH1 (Homo sapiens, UniProt P00352); experiment: hALDH1 HPLC-based activity assay (Example 1); assay type: biochemical
T2 construct: Purification of native ALDH1, QR2 and QR1; RBC extract was prepared as described above and applied to PQ-Sepharose; tissue Valley Biomedical (blood); host or cells: human red blood cells
T2 sequence (P00352 1-501): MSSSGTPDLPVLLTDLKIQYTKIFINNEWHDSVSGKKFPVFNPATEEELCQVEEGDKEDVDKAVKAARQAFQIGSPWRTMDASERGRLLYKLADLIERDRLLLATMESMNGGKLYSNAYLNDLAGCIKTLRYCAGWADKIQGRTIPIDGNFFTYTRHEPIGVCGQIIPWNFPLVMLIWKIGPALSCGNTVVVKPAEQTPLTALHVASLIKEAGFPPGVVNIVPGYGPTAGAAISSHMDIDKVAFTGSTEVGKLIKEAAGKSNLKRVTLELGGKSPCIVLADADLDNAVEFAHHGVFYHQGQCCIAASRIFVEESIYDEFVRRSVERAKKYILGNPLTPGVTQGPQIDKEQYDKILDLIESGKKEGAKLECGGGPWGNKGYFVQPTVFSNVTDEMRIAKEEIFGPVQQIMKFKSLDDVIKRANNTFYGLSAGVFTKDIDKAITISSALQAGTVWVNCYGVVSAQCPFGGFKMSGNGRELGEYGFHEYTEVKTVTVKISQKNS
Method: ATP-affinity array chromatography. In whole mouse experiments, the animal (except for its tail, feet, skin and intestines) was frozen in liquid N2 and blended in buffer A containing 50 mM Hepes, pH 7.5, 50 mM NaCl, 10 mM MgCl2, 0.1% NONIDET- P40, 1 mM dithiothreitol, 1 μg/ml leupeptin, 100 μg/ml pefabloc and 10 μg/ml aprotinin. Mouse lysate was clarified by centrifugation for 1 hr at 100,000×g. For infected and non-infected RBC's˜1.5×10^9 cells were mixed with an equal volume of 2×buffer A, rocked for 30 min at 4° C., and clarified by centrifugation for 1 hr at 100,000×g. Supernatants were dialyzed overnight against 50 mM Hepes, pH 7.5, 50 mM NaCl, 10 mM MgCl2 and 1 mM dithiothreitol. […] Proteins were resolved by 12% SDS-PAGE and visualized by staining either with Coomassie brilliant Blue R-250 or silver nitrate. Alternatively, proteins were transferred to membrane GeneMate (Kaysville, Utah) in transfer buffer (25 mM Tris, 200 mM glycine, 20% methanol, and 0.01% SDS) for mixed peptide sequencing (Damer et al, J. Biol. Chem. 273:24396 (1998)). hALDH 1 and hQR2 purification and activity assays. Fresh human red blood cells (RBC) were obtained from Valley Biomedical, washed twice with PBS, and lysed in buffer B (0.1% Triton X, 50 mM Tris pH 7.5, 125 mM NaCl, 1 μg/mL aprotonin, 1 μg/mL pepstatin and 10 μg/mL PEFABLOC). […]
Values for hALDH1 were determined by HPLC assay. […]

With `CCN(CC)CCCC(C)Nc1ccnc2cc(Cl)ccc12` (stereo not drawn) [CQ, chloroquine] the Ki (QR2) was 0.61 ± 0.1 µM, the ALDH activity (ALDH1; 0.5 mM CQ, ALDH alone 48.42 ± 9.3 pmol) was 26.62 ± 6.1 pmol and the “inhibition of hALDH1 activity” value (ALDH1; in the presence of physiological [NADH]) was “relatively weak inhibitor”.
